Results from patent publication US20230219986A1, “NOVEL AMINOPYRIMIDINE EGFR INHIBITOR” (QILU PHARMACEUTICAL CO., LTD., priority 2020, published 2023).
pIC50: −log10 of the molar value. Marks after values point to notes of the source that are not given here.

How the values were obtained:
wild-type EGFR = target: T1, wild-type EGFR (Homo sapiens, UniProt P00533); assay: Enzymology experiment in vitro (HTRF/FRET kinase activity), wild-type EGFR; assay type: biochemical; conditions: HTRF KinEASE-TK, read-out: EGFR (WT) IC50
T1 construct: purchased Signalchem
Method in brief: (§1)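 HTRF KinEASE-TK format: EGFR enzyme preincubated with compound 10 min at room temperature, then peptide substrate plus ATP added for 40 min. Detection with EDTA, XL665-streptavidin and Eu³⁺-labeled antibody for 1 h.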

[1] = target: T2, L858R/T790M/C797S triple mutant EGFR (Homo sapiens, UniProt P00533, C797S/L858R/T790M); assay: Enzymology experiment in vitro (HTRF/FRET kinase activity), L858R/T790M/C797S triple mutant EGFR; assay type: biochemical; conditions: HTRF KinEASE-TK, read-out: EGFR (L858R/T790M/C797S) IC50
T2 construct: purchased Signalchem
Method in brief: as §1

[2] = tested on: EGFR wild-type cell line A431; assay: Cell proliferation inhibition experiment (CellTiter-Glo), A431; assay type: cell-based; conditions: Homo sapiens, A-431, 72 h, A431 cells, Cell Titer-Glo, read-out: A431 EGFR WT IC50
Method in brief: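 A431 cells, 800 per well, were cultured 24 h and then exposed to serially diluted compound (0.1% DMSO final) for 72 h at 37° C., 5% CO2.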

[3] = target: Ba/F3 De119/T790M/C797S EGFR triple mutant cell line (Homo sapiens, UniProt P00533, T790M/C797S, cells depend on it, form not given); assay: Cell proliferation inhibition experiment (CellTiter-Glo), Ba/F3 De119/T790M/C797S; assay type: cell-based; conditions: Ba/F3 Del19/T790M/C797S EGFR triple mutant cells, 72 hours, Cell Titer-Glo; read-out: Ba/F3 (Del19/T790M/C797S) IC50
[4] = target: Ba/F3 L858R/T790M/C797S EGFR triple mutant cell line (Homo sapiens, UniProt P00533, T790M/C797S/L858R, cells depend on it); assay: Cell proliferation inhibition experiment (CellTiter-Glo), Ba/F3 L858R/T790M/C797S; assay type: cell-based; conditions: 72 hours, Cell Titer-Glo, read-out: Ba/F3 (L858R/T790M/C797S) IC50
[5] = tested on: PC9 (De119/T790M/C797S) nude mice xenograft model; assay: In vivo efficacy research experiment A (compound 242); design: species or system BALB/c-nu mice; conditions: for Tumor volume (mm^3): mean ± standard error
Experimental: To evaluate the antitumor activity and toxic side effects of compound 242 orally administered for 21 days in PC9 (De119/T790M/C797S) nude mice xenograft model.
(§2) BALB/c-nu mice, female, SPF grade, purchased from Beijing Vital River Laboratory Animal Technology Co., Ltd.
(§3) PC9 (De119/T790M/C797S) cells, constructed by Qilu Pharmaceutical Co., Ltd.
(§4) PC9 (De119/T790M/C797S) cells were cultured in RPMI 1640 medium containing 10% FBS at 37° C. in a 5% carbon dioxide incubator; cells in exponential growth phase were collected and inoculated.
Under sterile conditions, PC9 (De119/T790M/C797S) cell suspension cultured in vitro was taken, the cell concentration was adjusted to 5×10^7 cells /mL after centrifugation, and subcutaneously inoculated under the right armpit of mice (0.1 mL/ mouse). The day of inoculation was set as day 0.
a, When the average tumor volume was about 180 mm^3, 24 mice with moderate tumor volume were selected and randomly divided into 3 groups according to the tumor volume: G1: solvent control group, G2: compound 242 (25 mg/kg) and G3: compound 242 (75/50 mg/kg), 8 mice/group.
(§5) b, After animals were grouped, administration was started, and the administration volume was 10 mL/kg, administered orally (po); administered by weight once a day for 21 consecutive days; tumor diameter was measured twice a week.
(§6) c, Tumor volume (TV): the tumor volume was measured twice a week to observe the volume change and growth rate of the tumor. Tumor volume V=½×a×b^2, where a and b represent the long and short diameters of the tumor, respectively. The growth inhibition effect of the compounds on tumor tissue was evaluated by tumor growth inhibition rate TGI (%). […] The data of the administration group and the negative control group were taken on the same day.
(§7) d, During the experiment, the living conditions of the mice, including appearance signs, general behavior, mental state, food intake, respiratory state, feces and urine characteristics, local injection site and other toxicity manifestations, were closely observed.
(§8) e, After the experiment reached the end point, the mice were euthanized, and the animal carcasses were frozen in a freezer and handed over to a qualified medical waste disposal unit for disposal.

[6] = tested on: PC9 (De119/T790M/C797S) nude mice xenograft model; assay: In vivo efficacy research experiment B (compound 243); design: species or system BALB/c-nu mice; conditions: for Tumor volume (mean ± standard error): PC9 (De119/T790M/C797S) xenograft
Experimental: To evaluate the antitumor activity and toxic side effects of compound 243 orally administered for 21 days in PC9 (De119/T790M/C797S) nude mice xenograft model.
as §2, §3, §4
Under sterile conditions, PC9 (De119/T790M/C797S) cell suspension cultured in vitro was taken, the cell concentration was adjusted to 3×10^7 cells/mL after centrifugation, and subcutaneously inoculated under the right armpit of mice (0.1 mL/ mouse). The day of inoculation was set as day 0.
a, When the average tumor volume was about 140 mm^3, 21 mice with moderate tumor volume were selected and randomly divided into […] according to the tumor volume: G1: solvent control group, G2: compound 243 (15 mg/kg) and G3: compound 243 (40 mg/kg), 7 mice/group.
as §5, §6, §7, §8

[7] = 25 mg/kg po once a day for 21 days
[8] = 75 (D1-D6), 50 (D7-D21) mg/kg po once a day
[9] = 15 mg/kg po once a day for 21 days
[10] = 40 mg/kg po once a day for 21 days

T1 sequence (P00533 25-1210): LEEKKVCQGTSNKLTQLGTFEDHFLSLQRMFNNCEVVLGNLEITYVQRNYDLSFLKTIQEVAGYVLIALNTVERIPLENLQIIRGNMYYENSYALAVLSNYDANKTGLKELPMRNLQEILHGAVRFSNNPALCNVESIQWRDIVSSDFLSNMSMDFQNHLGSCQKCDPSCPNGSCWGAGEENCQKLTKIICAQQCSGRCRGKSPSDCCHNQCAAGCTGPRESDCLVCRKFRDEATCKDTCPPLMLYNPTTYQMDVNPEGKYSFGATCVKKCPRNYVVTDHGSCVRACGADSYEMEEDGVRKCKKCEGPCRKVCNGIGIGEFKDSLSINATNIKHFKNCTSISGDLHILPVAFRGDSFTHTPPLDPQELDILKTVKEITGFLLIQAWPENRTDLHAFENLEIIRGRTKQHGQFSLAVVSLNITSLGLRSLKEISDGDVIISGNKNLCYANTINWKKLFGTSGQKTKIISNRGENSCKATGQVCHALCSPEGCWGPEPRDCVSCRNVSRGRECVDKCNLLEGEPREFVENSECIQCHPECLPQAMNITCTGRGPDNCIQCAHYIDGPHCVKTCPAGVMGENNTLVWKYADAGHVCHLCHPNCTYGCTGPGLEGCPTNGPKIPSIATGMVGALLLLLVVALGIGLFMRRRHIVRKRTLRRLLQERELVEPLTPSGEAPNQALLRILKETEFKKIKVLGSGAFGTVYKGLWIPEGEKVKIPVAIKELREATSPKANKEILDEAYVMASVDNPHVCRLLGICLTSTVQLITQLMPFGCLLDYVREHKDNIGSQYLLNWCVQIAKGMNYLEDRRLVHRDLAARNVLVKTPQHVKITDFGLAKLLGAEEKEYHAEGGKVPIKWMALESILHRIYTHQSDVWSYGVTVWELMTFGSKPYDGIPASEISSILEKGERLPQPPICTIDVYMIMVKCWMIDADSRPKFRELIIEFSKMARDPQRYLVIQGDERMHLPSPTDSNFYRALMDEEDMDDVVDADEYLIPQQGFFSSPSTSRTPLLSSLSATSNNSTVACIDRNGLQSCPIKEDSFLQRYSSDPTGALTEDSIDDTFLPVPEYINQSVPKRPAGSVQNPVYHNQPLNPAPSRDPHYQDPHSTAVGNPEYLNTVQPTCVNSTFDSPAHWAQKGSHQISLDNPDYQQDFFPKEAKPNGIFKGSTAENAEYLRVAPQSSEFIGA
T2 sequence (P00533 25-1210 T790M/C797S/L858R): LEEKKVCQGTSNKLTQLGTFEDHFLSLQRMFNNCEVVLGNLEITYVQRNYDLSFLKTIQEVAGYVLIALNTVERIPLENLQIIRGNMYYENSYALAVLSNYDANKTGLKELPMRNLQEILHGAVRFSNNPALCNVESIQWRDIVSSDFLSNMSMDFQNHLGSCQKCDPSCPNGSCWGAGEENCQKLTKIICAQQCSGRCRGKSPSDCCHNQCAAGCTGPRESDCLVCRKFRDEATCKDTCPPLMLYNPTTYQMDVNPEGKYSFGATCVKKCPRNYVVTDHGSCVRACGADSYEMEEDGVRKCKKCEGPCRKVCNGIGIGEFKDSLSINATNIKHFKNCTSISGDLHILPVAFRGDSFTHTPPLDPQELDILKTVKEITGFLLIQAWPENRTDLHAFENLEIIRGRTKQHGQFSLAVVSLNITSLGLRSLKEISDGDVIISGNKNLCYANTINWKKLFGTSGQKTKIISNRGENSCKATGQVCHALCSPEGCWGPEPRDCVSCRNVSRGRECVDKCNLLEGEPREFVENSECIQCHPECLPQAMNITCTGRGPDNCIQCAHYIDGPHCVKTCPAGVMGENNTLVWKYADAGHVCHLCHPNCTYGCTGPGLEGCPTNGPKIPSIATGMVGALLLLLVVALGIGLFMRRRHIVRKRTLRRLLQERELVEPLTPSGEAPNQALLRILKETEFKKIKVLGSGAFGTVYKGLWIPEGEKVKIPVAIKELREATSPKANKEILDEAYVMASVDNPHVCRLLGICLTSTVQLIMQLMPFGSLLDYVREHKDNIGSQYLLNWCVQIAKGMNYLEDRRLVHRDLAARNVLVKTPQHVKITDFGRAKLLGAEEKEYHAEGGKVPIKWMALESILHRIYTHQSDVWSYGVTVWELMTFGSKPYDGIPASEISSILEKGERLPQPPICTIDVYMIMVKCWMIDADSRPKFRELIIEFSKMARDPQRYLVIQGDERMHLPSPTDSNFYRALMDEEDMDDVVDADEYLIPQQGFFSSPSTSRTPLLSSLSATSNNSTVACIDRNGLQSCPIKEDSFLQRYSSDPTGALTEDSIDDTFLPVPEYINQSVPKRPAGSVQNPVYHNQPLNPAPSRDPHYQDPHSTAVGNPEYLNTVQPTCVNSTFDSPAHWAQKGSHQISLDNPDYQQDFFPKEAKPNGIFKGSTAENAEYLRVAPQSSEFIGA
Ba/F3 L858R/T790M/C797S EGFR triple mutant cell line, sequence (P00533 whole entry T790M/C797S/L858R): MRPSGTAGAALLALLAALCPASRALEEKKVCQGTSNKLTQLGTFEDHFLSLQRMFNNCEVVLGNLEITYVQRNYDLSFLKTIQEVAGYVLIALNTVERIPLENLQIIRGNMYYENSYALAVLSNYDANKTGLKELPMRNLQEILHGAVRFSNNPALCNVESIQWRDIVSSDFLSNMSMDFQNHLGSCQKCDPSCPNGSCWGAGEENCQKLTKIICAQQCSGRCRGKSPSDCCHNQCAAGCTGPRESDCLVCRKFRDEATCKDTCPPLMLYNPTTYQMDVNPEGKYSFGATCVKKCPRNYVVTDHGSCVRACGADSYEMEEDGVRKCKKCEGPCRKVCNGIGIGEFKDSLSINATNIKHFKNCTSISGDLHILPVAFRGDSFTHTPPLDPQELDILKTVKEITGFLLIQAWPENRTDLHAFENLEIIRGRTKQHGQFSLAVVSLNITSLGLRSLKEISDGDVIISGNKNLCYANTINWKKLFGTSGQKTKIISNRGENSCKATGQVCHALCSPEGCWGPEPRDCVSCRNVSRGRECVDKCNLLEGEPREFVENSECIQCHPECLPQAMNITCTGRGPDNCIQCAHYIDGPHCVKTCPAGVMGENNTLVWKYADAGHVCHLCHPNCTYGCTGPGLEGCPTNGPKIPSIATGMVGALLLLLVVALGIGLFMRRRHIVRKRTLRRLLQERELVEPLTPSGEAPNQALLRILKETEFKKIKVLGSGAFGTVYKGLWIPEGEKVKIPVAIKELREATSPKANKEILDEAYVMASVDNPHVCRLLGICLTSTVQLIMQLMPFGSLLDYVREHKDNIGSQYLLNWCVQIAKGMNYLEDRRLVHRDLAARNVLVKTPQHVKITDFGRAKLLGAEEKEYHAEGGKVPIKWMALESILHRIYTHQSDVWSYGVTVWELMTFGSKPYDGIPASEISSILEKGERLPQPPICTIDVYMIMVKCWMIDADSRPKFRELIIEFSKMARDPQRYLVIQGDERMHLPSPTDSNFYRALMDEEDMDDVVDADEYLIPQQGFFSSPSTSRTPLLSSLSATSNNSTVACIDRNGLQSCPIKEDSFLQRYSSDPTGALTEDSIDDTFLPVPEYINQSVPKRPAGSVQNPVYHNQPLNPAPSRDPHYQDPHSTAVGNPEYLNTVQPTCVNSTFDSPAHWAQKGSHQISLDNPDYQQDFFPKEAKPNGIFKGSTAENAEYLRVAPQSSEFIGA
Ba/F3 De119/T790M/C797S EGFR triple mutant cell line, sequence (P00533 with tags, fused parts or gaps DEL746-750/T790M/C797S, form open): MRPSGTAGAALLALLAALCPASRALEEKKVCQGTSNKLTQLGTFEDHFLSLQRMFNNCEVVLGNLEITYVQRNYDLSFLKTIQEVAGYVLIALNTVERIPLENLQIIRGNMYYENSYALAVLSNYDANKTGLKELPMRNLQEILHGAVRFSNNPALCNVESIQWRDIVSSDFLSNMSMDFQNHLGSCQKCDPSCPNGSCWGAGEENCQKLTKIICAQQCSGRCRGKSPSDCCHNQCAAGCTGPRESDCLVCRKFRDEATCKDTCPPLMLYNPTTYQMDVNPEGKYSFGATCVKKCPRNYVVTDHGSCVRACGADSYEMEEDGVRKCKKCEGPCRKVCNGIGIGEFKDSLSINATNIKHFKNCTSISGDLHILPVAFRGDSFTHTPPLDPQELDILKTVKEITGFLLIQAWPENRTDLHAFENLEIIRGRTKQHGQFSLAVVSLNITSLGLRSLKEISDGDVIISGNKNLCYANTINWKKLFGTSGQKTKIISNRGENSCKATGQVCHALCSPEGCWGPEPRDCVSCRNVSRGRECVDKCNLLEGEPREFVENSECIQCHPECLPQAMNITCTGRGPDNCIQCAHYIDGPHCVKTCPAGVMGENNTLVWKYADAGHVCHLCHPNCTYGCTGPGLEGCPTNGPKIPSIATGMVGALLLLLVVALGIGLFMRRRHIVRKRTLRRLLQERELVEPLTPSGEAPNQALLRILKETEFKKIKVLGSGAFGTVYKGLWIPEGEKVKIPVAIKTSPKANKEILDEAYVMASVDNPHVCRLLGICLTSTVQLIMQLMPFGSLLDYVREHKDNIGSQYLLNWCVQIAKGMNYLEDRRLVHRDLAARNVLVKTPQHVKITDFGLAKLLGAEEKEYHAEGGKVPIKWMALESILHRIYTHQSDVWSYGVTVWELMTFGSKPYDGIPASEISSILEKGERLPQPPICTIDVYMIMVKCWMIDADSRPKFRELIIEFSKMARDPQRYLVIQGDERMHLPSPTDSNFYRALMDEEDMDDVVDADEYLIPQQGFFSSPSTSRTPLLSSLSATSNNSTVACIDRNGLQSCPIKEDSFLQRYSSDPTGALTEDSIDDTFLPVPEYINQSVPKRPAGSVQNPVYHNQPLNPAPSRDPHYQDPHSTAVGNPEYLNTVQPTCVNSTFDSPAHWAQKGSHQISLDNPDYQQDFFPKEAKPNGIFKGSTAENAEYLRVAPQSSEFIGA

Structure (SMILES)	pIC50 (wild-type EGFR)	pIC50 [1]	pIC50 [2]	GI50 [3] [nM]	GI50 [4] [nM]	further results
COc1cc(N2CCC3(CCN(CC4(F)CC4)CC3)CC2)c(-c2cnn(C)c2)cc1Nc1ncc(Br)c(Nc2ccc3nccnc3c2P(C)(C)=O)n1 [compound 242, (6-((5-Bromo-2-((4-(9-((1-fluorocyclopropyl)methyl)-3,9-diazaspiro[5.5]undecan-3yl)-2-methoxy-5-(1-methyl-1H-pyrazol-4-yl)phenyl)amino)pyrimidin-4-yl)amino)quinoxalin-5-yl)dimethylphosphine oxide]	8.62	9.40	7.12	1.36	3.07	tolerability of mice ([5]; 25 mg/kg and 50 mg/kg doses): well tolerated; TGI (%) [5, 7]: 102%; Weight change (%) [5, 7]: 2.4%; Tumor volume (mm^3) [5, 7]: 139.8 ± 13.7** mm^3; tumor growth inhibition (in words) ([5]; 25, 75/50 mg/kg): significantly inhibit tumor growth; TGI (%) [5, 8]: 105%; Weight change (%) [5, 8]: −3.4%; Tumor volume (mm^3) [5, 8]: 64.0 ± 11.9** mm^3
COc1cc(N2CCC3(CC2)CCN(C(C)(C)CF)CC3)c(-c2cnn(C)c2)cc1Nc1ncc(Br)c(Nc2ccc3nccnc3c2P(C)(C)=O)n1 [compound 243, (6-((5-Bromo-2-((4-(9-(1-fluoro-2-methylpropan-2-yl)-3,9-diazaspiro[5.5]undecan-3-yl)-2-methoxy-5-(1-methyl-1H-pyrazol-4-yl)phenyl)amino)pyrimidin-4-yl)amino)quinoxalin-5-yl)dimethylphosphine oxide]	8.31	9.27	6.85	1.73	3.95	TGI [6, 9]: 81.4%; Weight change [6, 9]: −0.4%; Tumor volume (mean ± standard error) [6, 9]: 318.6 ± 38.63** mm^3; TGI [6, 10]: 110.1%; Weight change [6, 10]: −6.1%; Tumor volume (mean ± standard error) [6, 10]: 38.6 ± 5.19** mm^3; tolerability of mice ([6]; 15, 40 mg/kg): well tolerated; tumor growth inhibition (in words) ([6]; 15, 40 mg/kg po once a day for 21 days): significantly inhibit tumor growth
COc1cc(N2CC3CN(CCF)CC3C2)c(-c2cnn(C)c2)cc1Nc1ncc(Br)c(Nc2ccc3nccnc3c2P(C)(C)=O)n1 (centres unmarked) [compound 247, (6-((5-Bromo-2-((4-(5-(2-fluoroethyl)hexahydropyrrolo[3,4-c]pyrrol-2(1H)-yl)-2-methoxy-5-(1-methyl-1H-pyrazol-4-yl)phenyl)amino)pyrimidin-4-yl)amino)quinoxalin-5-yl)dimethylphosphine oxide]	8.24	9.92	7.18	3.76	7.76	–
COc1cc(N2CCC3(CC2)CCN(C2COC2)CC3)c(-c2cnn(C)c2)cc1Nc1ncc(Br)c(Nc2ccc3nccnc3c2P(C)(C)=O)n1 [compound 248]	8.72	9.54	7.07	1.17	2.37	–

More lines, in order of rising pIC50 (wild-type EGFR), values ahead:

pIC50 (wild-type EGFR)	pIC50 [1]	pIC50 [2]	GI50 [3] [nM]	GI50 [4] [nM]	Structure (SMILES)	further results
6.98	8.55	6.13	5.35	11.6	COc1cc(N2CCC3(CCN(CC(F)(F)F)CC3)CC2)c(-c2cnn(C)c2)cc1Nc1ncc(Br)c(Nc2ccc3nccnc3c2P(C)(C)=O)n1 [compound 245]	–
8.48	9.40	7.07	2.55	8.95	COc1nc(N2CCC3(CCN(CCF)CC3)CC2)c(-c2cnn(C)c2)cc1Nc1ncc(Br)c(Nc2ccc3nccnc3c2P(C)(C)=O)n1 [compound 249]	–
8.56	9.11	6.90	1.19	2.43	COc1cc(N2CCC3(CCN(CC4(C#N)CC4)CC3)CC2)c(-c2cnn(C)c2)cc1Nc1ncc(Br)c(Nc2ccc3nccnc3c2P(C)(C)=O)n1 [compound 244, 1-((9-(4-((5-Bromo-4-((5-(dimethylphosphoryl)quinoxalin-6-yl)amino)pyrimidin-2-yl)amino)-5-methoxy-2-(1-methyl-1H-pyrazol-4-yl)phenyl)-3,9-diazaspiro[5.5]undecan-3-yl)methyl)cyclopropane-1-carbonitrile]	–
8.98	9.40	6.89	2.59	3.64	COc1cc(N2CCC3(CC2)CCN(C(C)CF)CC3)c(-c2cnn(C)c2)cc1Nc1ncc(Br)c(Nc2ccc3nccnc3c2P(C)(C)=O)n1 (centres unmarked) [compound 246]	–
